Data taken from PubChem BioAssay AID330 (DTP/NCI, 2004).
Values joined by “and” are separate entries in the source; they are usually repeats but may differ in a detail not shown here. Identical values can stand only once. Toxic doses and inconclusive results are not listed.

Tested on: P388 leukemia ip, CD2F1 mice, survival T/C
Test: NCI In Vivo Anticancer Drug Screen. Data for tumor model P388 Leukemia (intraperitoneal) in CD2F1 (CDF1) mice
Conditions: endpoint: median survival time, higher = longer survival
Procedure, shortened: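 Mice carrying the transplanted tumor received test compound or vehicle. Survival was recorded in each group, and the value is the treated-group measurement divided by that of the vehicle-treated control group.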

[1] = dose: 50.0 mg/kg/injection, schedule: Q01DX005 (ip), vehicle: saline with Tween-80
[2] = dose: 100.0 mg/kg/injection, schedule: Q01DX005 (ip), vehicle: saline with Tween-80
[3] = dose: 200.0 mg/kg/injection, schedule: Q01DX005 (ip), vehicle: saline with Tween-80
[4] = dose: 25.0 mg/kg/injection, schedule: Q01DX005 (ip), vehicle: saline with Tween-80
[5] = dose: 25.0 mg/kg/injection, schedule: Q01DX005 (ip), vehicle: saline
[6] = dose: 50.0 mg/kg/injection, schedule: Q01DX005 (ip), vehicle: saline
[7] = dose: 100.0 mg/kg/injection, schedule: Q01DX005 (ip), vehicle: saline
[8] = dose: 3.12 mg/kg/injection, schedule: Q01DX009 (ip), vehicle: saline
[9] = dose: 6.25 mg/kg/injection, schedule: Q01DX009 (ip), vehicle: saline
[10] = dose: 12.5 mg/kg/injection, schedule: Q01DX005 (ip), vehicle: saline with Tween-80
[11] = dose: 100.0 mg/kg/injection, schedule: Q01DX009 (ip), vehicle: saline
[12] = dose: 200.0 mg/kg/injection, schedule: Q01DX009 (ip), vehicle: saline

In the case of `CCOC(=O)N1c2ccccc2OC1C#N` (configuration not stated), the T/C [1] is reported as 99 % of control, the T/C [2] is reported as 107 % of control and the T/C [3] is reported as 113 % of control.
`COc1cc(C2c3cc4c(cc3OC(C)(O)C2C)OCO4)cc(OC)c1OC` (configuration not stated) was tested, and the T/C (dose: 12.5 mg/kg/injection, schedule: Q01DX005 (ip), vehicle: saline) was 104 % of control and 105 % of control, the T/C [4] was 107 % of control and the T/C [5] was 105 % of control. For the same compound, the T/C [1] was 103 % of control, the T/C [6] was 102 % of control and 105 % of control and the T/C [7] was 107 % of control and 113 % of control. For the same compound, the T/C (dose: 200.0 mg/kg/injection, schedule: Q01DX005 (ip), vehicle: saline) was 111 % of control.
With `C/C(=N/NC(N)=O)c1cccc(/C(C)=N/NC(N)=O)n1.[Cl][Cu][Cl]` the T/C [8] was 108 % of control, the T/C [9] was 94 % of control and the T/C (dose: 12.5 mg/kg/injection, schedule: Q01DX009 (ip), vehicle: saline) was 99 % of control.
`Cc1c(C2Nc3ccccc3C2C)[nH]c2ccccc12` (configuration not stated) was tested, and the T/C [1] was 104 % of control, the T/C [2] was 100 % of control and the T/C [3] was 103 % of control.
In the case of `C1CCC2(CC1)CSC2.[Br][Hg][Br]`, the T/C (dose: 6.25 mg/kg/injection, schedule: Q01DX001 (ip), vehicle: saline with Tween-80) is reported as 89 % of control and the T/C (dose: 12.5 mg/kg/injection, schedule: Q01DX001 (ip), vehicle: saline with Tween-80) is reported as 87 % of control.
With `O=C1CSCC(=O)OCCOCCSCCOCCO1` the T/C (dose: 100.0 mg/kg/injection, schedule: Q04DX003 (ip), vehicle: suspension in saline) was 92 % of control, the T/C (dose: 200.0 mg/kg/injection, schedule: Q04DX003 (ip), vehicle: suspension in saline) was 99 % of control and the T/C (dose: 400.0 mg/kg/injection, schedule: Q04DX003 (ip), vehicle: suspension in saline) was 101 % of control.
`CN1CCC(/C=C/c2ccc(Cl)c(Cl)c2)CN1` (configuration not stated) (tested in a mixture with another compound) was tested, and the T/C (dose: 25.0 mg/kg/injection, schedule: Q01DX001 (ip), vehicle: saline) was 100 % of control and 95 % of control, the T/C (dose: 50.0 mg/kg/injection, schedule: Q01DX001 (ip), vehicle: saline) was 100 % of control and the T/C (dose: 100.0 mg/kg/injection, schedule: Q01DX001 (ip), vehicle: saline) was 104 % of control and 93 % of control. For the same compound, the T/C (dose: 100.0 mg/kg/injection, schedule: Q01DX001 (ip), vehicle: suspension in saline) was 116 % of control.
For `Cc1cc2[n-]c1/C=c1\[n-]/c(c(CCC(=O)O)c1C)=C\c1[n-]c(c(C)c1CCC(=O)O)/C=c1/cc(C)/c([n-]1)=C/2.[Co]`, the T/C (dose: 12.5 mg/kg/injection, schedule: Q01DX005 (ip), vehicle: Klucel (hydroxypropylcellulose) (HPC)) was 98 % of control, the T/C (dose: 25.0 mg/kg/injection, schedule: Q01DX005 (ip), vehicle: Klucel (hydroxypropylcellulose) (HPC)) was 101 % of control and 97 % of control and the T/C (dose: 50.0 mg/kg/injection, schedule: Q01DX005 (ip), vehicle: Klucel (hydroxypropylcellulose) (HPC)) was 106 % of control.
For `Cc1cccc(CNc2cccc(C)n2)n1`, the T/C [6] was 105 % of control and the T/C [7] was 97 % of control.
`COc1cccc(C2c3cc4c(cc3OC(C)(O)C2C)OCO4)c1OC` (configuration not stated) was tested, and the T/C (dose: 60.0 mg/kg/injection, schedule: Q01DX005 (ip), vehicle: Klucel (hydroxypropylcellulose) (HPC)) was 103 % of control, the T/C (dose: 120.0 mg/kg/injection, schedule: Q01DX005 (ip), vehicle: Klucel (hydroxypropylcellulose) (HPC)) was 97 % of control and the T/C (dose: 240.0 mg/kg/injection, schedule: Q01DX005 (ip), vehicle: Klucel (hydroxypropylcellulose) (HPC)) was 95 % of control.
In the case of `c1c[nH]c(C23CC4CC(CC(C4)C2)C3)n1`, the T/C [10] is reported as 100 % of control, the T/C [4] is reported as 100 % of control and the T/C [1] is reported as 110 % of control and 94 % of control.
In the case of `COc1cccc2c1C(=O)c1c(O)c3c(c(O)c1C2=O)CC(O)(/C(C)=N/NC(=O)CCCCCCC(=O)N/N=C(\C)C1(O)Cc2c(O)c4c(c(O)c2C(OC2CC(N)C(O)C(C)O2)C1)C(=O)c1c(OC)cccc1C4=O)CC3OC1CC(N)C(O)C(C)O1` (configuration not stated), the T/C (dose: 2.0 mg/kg/injection, schedule: Q01DX009 (ip), vehicle: water) is reported as 162 % of control, the T/C (dose: 4.0 mg/kg/injection, schedule: Q01DX009 (ip), vehicle: water) is reported as 212 % of control and the T/C (dose: 8.0 mg/kg/injection, schedule: Q01DX009 (ip), vehicle: water) is reported as 245 % of control. For the same compound, the T/C (dose: 16.0 mg/kg/injection, schedule: Q01DX009 (ip), vehicle: water) was 87 % of control.
`O=C(O)CCCCCCCCCCNC(=O)Nc1cccc(C(F)(F)F)c1` was tested, and the T/C (dose: 25.0 mg/kg/injection, schedule: Q01DX009 (ip), vehicle: saline) was 88 % of control, the T/C (dose: 50.0 mg/kg/injection, schedule: Q01DX009 (ip), vehicle: saline) was 98 % of control and the T/C [11] was 104 % of control. For the same compound, the T/C [12] was 111 % of control.
For `NC(N)=NCCCC(N)C(=O)CC(Cc1ccc(O)cc1)C(=O)O` (configuration not stated), the T/C (dose: 7.5 mg/kg/injection, schedule: Q01DX005 (ip), vehicle: water) was 98 % of control, the T/C (dose: 15.0 mg/kg/injection, schedule: Q01DX005 (ip), vehicle: water) was 98 % of control and the T/C (dose: 30.0 mg/kg/injection, schedule: Q01DX005 (ip), vehicle: water) was 95 % of control. For the same compound, the T/C (dose: 60.0 mg/kg/injection, schedule: Q01DX005 (ip), vehicle: water) was 98 % of control.
`CCOC(=O)N(C)CCc1cc(OC)c(OC)cc1/C=C\c1ccc(OC)c(OC)c1` was tested, and the T/C (dose: 12.5 mg/kg/injection, schedule: Q01DX001 (ip), vehicle: saline + alcohol) was 100 % of control, the T/C (dose: 25.0 mg/kg/injection, schedule: Q01DX001 (ip), vehicle: saline + alcohol) was 98 % of control and the T/C (dose: 50.0 mg/kg/injection, schedule: Q01DX001 (ip), vehicle: saline + alcohol) was 98 % of control.
`C=CCNC(=S)Nc1ccccc1C(=O)c1ccccc1` was tested, and the T/C (dose: 50.0 mg/kg/injection, schedule: Q01DX009 (ip), vehicle: saline with Tween-80) was 104 % of control, the T/C (dose: 100.0 mg/kg/injection, schedule: Q01DX009 (ip), vehicle: saline with Tween-80) was 103 % of control and the T/C (dose: 200.0 mg/kg/injection, schedule: Q01DX009 (ip), vehicle: saline with Tween-80) was 103 % of control.
In the case of `[Cl][Pt+2][Cl].[NH-]C1C(O)OC(CO)C(O)C1O.[NH-]C1C(O)OC(CO)C(O)C1O` (configuration not stated), the T/C (dose: 25.0 mg/kg/injection, schedule: Q04DX002 (ip), vehicle: saline) is reported as 105 % of control, the T/C (dose: 50.0 mg/kg/injection, schedule: Q04DX002 (ip), vehicle: saline) is reported as 105 % of control and the T/C (dose: 100.0 mg/kg/injection, schedule: Q04DX002 (ip), vehicle: saline) is reported as 105 % of control. For the same compound, the T/C (dose: 200.0 mg/kg/injection, schedule: Q04DX002 (ip), vehicle: saline) was 112 % of control and the T/C (dose: 400.0 mg/kg/injection, schedule: Q04DX002 (ip), vehicle: saline) was 106 % of control.
In the case of `COc1ccc(/C=C2\CCn3c2nc2ccccc2c3=O)cc1`, the T/C (dose: 89.75 mg/kg/injection, schedule: Q04DX002 (ip), vehicle: Klucel (hydroxypropylcellulose) (HPC)) is reported as 103 % of control, the T/C (dose: 179.5 mg/kg/injection, schedule: Q04DX002 (ip), vehicle: Klucel (hydroxypropylcellulose) (HPC)) is reported as 102 % of control and the T/C (dose: 359.0 mg/kg/injection, schedule: Q04DX002 (ip), vehicle: Klucel (hydroxypropylcellulose) (HPC)) is reported as 102 % of control.
With `C(=Nc1ccccc1-c1ccccc1N=Cc1ccccc1)c1ccccc1` the T/C (dose: 1.56 mg/kg/injection, schedule: Q01DX009 (ip), vehicle: saline) was 100 % of control and 91 % of control, the T/C [8] was 91 % of control and the T/C (dose: 6.25 mg/kg/injection, schedule: Q01DX009 (ip), vehicle: saline with Tween-80) was 104 % of control. The T/C [9] was 88 % of control and 93 % of control, the T/C (dose: 25.0 mg/kg/injection, schedule: Q01DX009 (ip), vehicle: saline with Tween-80) was 86 % of control and the T/C [11] was 96 % of control. The T/C [12] was 89 % of control.
For `CC1OCN2CCCCC12` (configuration not stated), the T/C [5] was 107 % of control and the T/C [6] was 118 % of control.
For `COC(=O)c1c(OC)cc2c(Cl)c3c(c(O)c2c1C)C(=O)[C@@]1(O)C(=O)C=C(OC)[C@H](O)[C@@]1(O)C3=O`, the T/C [10] was 104 % of control, the T/C [4] was 109 % of control and the T/C [1] was 95 % of control. The T/C [2] was 104 % of control and the T/C [3] was 110 % of control.
In the case of `O=C(O)c1cc2cccc(OCc3ccc(Cl)cc3Cl)c2cc1O`, the T/C (dose: 100.0 mg/kg/injection, schedule: Q04DX002 (ip), vehicle: Klucel (hydroxypropylcellulose) (HPC)) is reported as 115 % of control, the T/C (dose: 200.0 mg/kg/injection, schedule: Q04DX002 (ip), vehicle: Klucel (hydroxypropylcellulose) (HPC)) is reported as 106 % of control and the T/C (dose: 400.0 mg/kg/injection, schedule: Q04DX002 (ip), vehicle: Klucel (hydroxypropylcellulose) (HPC)) is reported as 103 % of control.
In the case of `O=[N+]([O-])c1ccc(S(=O)(=O)Nc2c([N+](=O)[O-])cc([N+](=O)[O-])c3ccccc23)cc1`, the T/C (dose: 50.0 mg/kg/injection, schedule: Q04DX003 (ip), vehicle: saline with Tween-80) is reported as 92 % of control, the T/C (dose: 100.0 mg/kg/injection, schedule: Q04DX003 (ip), vehicle: saline with Tween-80) is reported as 95 % of control and the T/C (dose: 200.0 mg/kg/injection, schedule: Q04DX003 (ip), vehicle: saline with Tween-80) is reported as 105 % of control.
